Reference: publication PMC10589313 (Nature Communications, 2023)
Several values for one entry are separate records, joined by “and”; a condition that tells them apart may be missing. Identical values can stand only once.

Legend:
Type in all cases: cell-based
human H4R N147Y mutant = target: T1, human H4R N147Y mutant (Homo sapiens, UniProt Q9H3N8, N147Y); experiment: TGFα shedding assay, H4R N147Y mutant; conditions: for EC50: EC50 (nM)
T1 construct: a mutant H4R (human, full-length, and untagged); expressed in transfected cells; host or cells: HEK293A
Method: (§1) The mutants were prepared using the primers listed in Supplementary Table 2. […] The chimeric Gαq/i1 subunit comprises the Gαq backbone and Gαi1-derived six-amino acid C-terminus and couples with Gi-coupled H4R but induces a Gq-dependent TGFα shedding response. After culturing for 1 day and incubating at 37 °C in a 5% CO2 incubator, the transfected cells were harvested by trypsinization, neutralized with Dulbecco’s modified Eagle’s medium containing 10% fetal calf serum (FCS) and penicillin–streptomycin, washed once with Hank’s balanced salt solution (HBSS) containing 5 mM of HEPES (pH 7.4), and resuspended in 6 mL of the HEPES-containing HBSS. The cell suspension was seeded into a 96-well plate at a volume of […] per well (typically, 48 wells per transfected cells) and incubated for 30 min in the CO2 incubator. Test compounds (10×, diluted in 0.01% BSA and 5 mM of HEPES-containing HBSS, […] volume) were added to duplicate wells and incubated for 1 h. After centrifugation, the conditioned medium ([…]) was transferred to an empty 96-well plate. AP reaction solution [10 mM of p-nitrophenylphosphate (p-NPP), 120 mM of Tris–HCl (pH 9.5), 40 mM of NaCl, and 10 mM of MgCl2] was dispensed into the cell culture plates and plates containing conditioned media ([…]). Absorbance was measured at 405 nm before and after a 1-h incubation period at 25 °C using a microplate reader (iMark™ Microplate Absorbance Reader; BioRad). Ligand-induced AP-TGFα release was calculated as previously described. The vehicle-treated AP-TGFα release signal was set as a baseline unless otherwise specified. AP-TGFα release signals were fitted with a four-parameter sigmoidal concentration-response curve, from which EC50 and Emax values were obtained, using GraphPad Prism 9 software (GraphPad Prism). Negative values of logarithmically transformed EC50 values (pEC50) were used to calculate the mean and standard error of independent experiments.
(§2) All functional study data were analyzed using Prism 9 (GraphPad) and are presented as mean ± standard error of the mean (SEM) of three independent experiments. Statistical analyses were performed using Prism 9 (GraphPad) with one-way analysis of variance followed by Dunnett’s post-hoc test. Values with p < 0.05 are considered statistically significant.

human H4R C98A mutant = target: T2, human H4R C98A mutant (Homo sapiens, UniProt Q9H3N8, C98A); experiment: TGFα shedding assay, H4R C98A mutant
T2 construct: a mutant H4R (human, full-length, and untagged); expressed in transfected cells; host or cells: HEK293A
Method: as §1, §2

human wild-type H4R = target: T3, human wild-type H4R (Homo sapiens, UniProt Q9H3N8); experiment: TGFα shedding assay, wild-type H4R
T3 construct: a mutant H4R (human, full-length, and untagged); expressed in transfected cells; host or cells: HEK293A
Method: as §1, §2

[1] = Imetit (M) -5 (log concentration), raw replicate values

T1 sequence (Q9H3N8 whole entry N147Y): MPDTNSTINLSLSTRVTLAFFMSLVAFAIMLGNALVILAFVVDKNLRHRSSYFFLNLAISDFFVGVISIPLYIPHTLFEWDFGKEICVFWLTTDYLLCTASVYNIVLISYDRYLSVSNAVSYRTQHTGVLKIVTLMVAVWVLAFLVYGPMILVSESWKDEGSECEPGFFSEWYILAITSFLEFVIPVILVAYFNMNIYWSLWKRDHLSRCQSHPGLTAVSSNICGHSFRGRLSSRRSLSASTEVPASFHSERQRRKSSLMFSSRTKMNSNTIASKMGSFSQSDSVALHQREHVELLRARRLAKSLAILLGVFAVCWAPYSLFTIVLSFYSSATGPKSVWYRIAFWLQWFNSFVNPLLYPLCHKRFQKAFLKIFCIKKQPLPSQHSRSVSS
T3 sequence (Q9H3N8 whole entry): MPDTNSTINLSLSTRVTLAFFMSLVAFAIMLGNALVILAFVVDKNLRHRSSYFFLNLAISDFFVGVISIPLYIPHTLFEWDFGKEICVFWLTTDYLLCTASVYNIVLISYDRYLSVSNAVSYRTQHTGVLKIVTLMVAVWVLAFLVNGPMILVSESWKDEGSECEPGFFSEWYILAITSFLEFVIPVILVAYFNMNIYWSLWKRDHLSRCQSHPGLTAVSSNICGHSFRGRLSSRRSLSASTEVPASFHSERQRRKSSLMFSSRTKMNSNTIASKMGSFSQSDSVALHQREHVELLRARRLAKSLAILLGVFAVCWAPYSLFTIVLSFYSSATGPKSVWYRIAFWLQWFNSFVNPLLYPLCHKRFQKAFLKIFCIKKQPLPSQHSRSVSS
T2 sequence (Q9H3N8 whole entry C98A): as the sequence (Q9H3N8 whole entry N147Y) above, with C98A, Y147N counted along it

N=C(N)SCCc1cnc[nH]1 [Imetit, imetit]
EC50 (human H4R N147Y mutant; N147Y mutant): 319 nM | EC50 (human H4R N147Y mutant; N147Y, single experiments, source data Figure 4e-f): 632 nM and 127 nM and 200 nM | Shedding assay response, N147Y (human H4R N147Y mutant; [1]): 5.667 and 6.627 and 11.6194 and 11.6248 and 10.5662 and 9.653 and 14.7457 and 12.0475 and 16.0734 | fold of change (human H4R N147Y mutant; N147Y mutant, EC50 relative to WT): 10.7 fold | Emax (human H4R N147Y mutant; read-out: Emax (%) mean ± SEM): 11.1 ± 1.47% | EC50 (human H4R C98A mutant; C98A mutant): 479 nM | fold of change (human H4R C98A mutant; C98A mutant, EC50 relative to WT): 16.3 fold | EC50 (human H4R C98A mutant; EC50 (nM), C98A mutant): 486 nM | Shedding assay response, C98A (human H4R C98A mutant; [1]): 13.5967 and 12.9858 and 12.6952 and 16.5163 and 19.8944 and 18.7443 and 18.3535 and 16.3047 and 17.1057 | Emax (human H4R C98A mutant; read-out: Emax (%) mean ± SEM): 17.1 ± 1.72% | EC50 (human wild-type H4R; EC50 (nM), WT H4R): 29.9 nM | EC50 (human wild-type H4R; EC50 (nM), hH4R, single experiments (3 columns), source data Figure 4e-f): 30.7 nM and 23 nM | Shedding assay response, WT (human wild-type H4R; [1]): 14.3865 and 12.6364 and 12.8296 and 15.366 and 17.4678 and 18.6444 and 14.3694 and 15.3398 and 17.1099 | fold of change (human wild-type H4R; WT H4R, EC50 relative to WT): 1 fold | EC50 (human wild-type H4R; pEC50, hH4R, single experiments (3 columns), source data Figure 4e-f): 35.8 nM and 30.7 nM | EC50 (human wild-type H4R; pEC50 mean ± SEM, WT H4R, three independent experiments): 29.5 nM | Emax (human wild-type H4R; read-out: Emax (%) mean ± SEM): 14.9 ± 1.19%
